Assay results as given in the supplement of paper PMC10307832.

How the values were obtained:
Test in all cases: relative viability (nuclei count vs DMSO), 5 days (fraction); higher = more cells survive
AZD5582 + Phenformin = compound: C[C@@H](C(=O)N[C@@H](C1CCCCC1)C(=O)N2CCC[C@H]2C(=O)N[C@@H]3[C@@H](CC4=CC=CC=C34)OCC#CC#CCO[C@@H]5CC6=CC=CC=C6[C@@H]5NC(=O)[C@@H]7CCCN7C(=O)[C@H](C8CCCCC8)NC(=O)[C@H](C)NC)NC [AZD5582] + N=C(N)NC(=N)NCCc1ccccc1 [Phenformin] (partner 250 µM)
Method in brief: (§1)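 Lung cancer cell lines in 1536-well plates got either a single drug or a fixed anchor-drug dose together with five library-drug doses (not always all listed) in √10 steps, by pin tool, on the day after seeding. Nuclei were counted after 5 days, and relative viability is the treated-to-vehicle ratio of nuclei counts. Values are medians of duplicate plates.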

AZD5582 + Vorinostat = compound: C[C@@H](C(=O)N[C@@H](C1CCCCC1)C(=O)N2CCC[C@H]2C(=O)N[C@@H]3[C@@H](CC4=CC=CC=C34)OCC#CC#CCO[C@@H]5CC6=CC=CC=C6[C@@H]5NC(=O)[C@@H]7CCCN7C(=O)[C@H](C8CCCCC8)NC(=O)[C@H](C)NC)NC [AZD5582] + O=C(CCCCCCC(=O)Nc1ccccc1)NO [Vorinostat] (partner 1 µM)
Method in brief: as §1

Temozolomide + Lapatinib = compound: Cn1nnc2c(C(N)=O)ncn2c1=O [Temozolomide] + CS(=O)(=O)CCNCc1ccc(-c2ccc3ncnc(Nc4ccc(OCc5cccc(F)c5)c(Cl)c4)c3c2)o1 [Lapatinib] (partner 2 µM)
Method in brief: as §1

[1] = compound: Cn1nnc2c(C(N)=O)ncn2c1=O [Temozolomide] + O=C(CCCCCCC(=O)Nc1ccccc1)NO [Vorinostat] (partner 1 µM)
Method in brief: as §1

Cell Line | relative viability (AZD5582 + Phenformin; first compound 0.001581 µM) | relative viability (AZD5582 + Phenformin; first compound 0.005 µM) | relative viability (AZD5582 + Phenformin; first compound 0.01581 µM) | relative viability (AZD5582 + Phenformin; first compound 0.05 µM) | relative viability (AZD5582 + Vorinostat; first compound 0.001581 µM) | relative viability (AZD5582 + Vorinostat; first compound 0.005 µM) | relative viability (AZD5582 + Vorinostat; first compound 0.05 µM) | relative viability (Temozolomide + Lapatinib; first compound 0.2 µM) | relative viability (Temozolomide + Lapatinib; first compound 0.6325 µM) | relative viability (Temozolomide + Lapatinib; first compound 2 µM) | relative viability (Temozolomide + Lapatinib; first compound 6.325 µM) | relative viability (Temozolomide + Lapatinib; first compound 20 µM) | relative viability ([1]; first compound 0.6325 µM) | relative viability ([1]; first compound 2 µM) | relative viability ([1]; first compound 6.325 µM) | relative viability ([1]; first compound 20 µM) | relative viability (AZD5582 + Vorinostat; first compound 0.01581 µM) | relative viability ([1]; first compound 0.2 µM)
EKVX | 0.217 | 0.23 | 0.196 | 0.228 | 0.72 | 0.934 | 0.932 | 0.189 | 0.238 | 0.204 | 0.242 | 0.197 | 0.745 | 0.691 | 0.794 | 0.395 |  | 
NCI-H1915 | 0.358 | 0.361 | 0.342 | 0.367 | 0.428 | 0.439 | 0.477 | 0.995 | 0.935 | 0.876 | 0.693 | 0.376 | 0.517 | 0.507 | 0.343 | 0.241 | 0.462 | 0.61
NCI-H1395 | 0.5 | 0.476 | 0.412 | 0.45 | 0.721 | 0.789 | 0.768 | 1.07 | 1.19 | 1.5 | 0.903 | 0.968 | 0.837 | 0.663 | 0.569 | 0.673 |  | 0.901
HCC-366 | 0.575 | 0.564 |  | 0.708 | 0.239 | 0.398 | 0.425 | 1.18 | 1 | 1.1 | 1.08 | 1.07 | 0.349 | 0.307 | 0.315 | 0.351 | 0.186 | 0.443
HCC-44 | 0.169 | 0.149 | 0.105 | 0.145 | 1.04 | 1.01 | 1.04 | 1.14 | 1.01 | 1.11 | 1.05 | 0.975 | 1.09 | 1.02 | 1.16 | 1.06 | 1.08 | 1.15
COR-L 105 | 0.503 | 0.651 | 0.392 | 0.496 | 0.843 | 0.912 | 0.878 | 0.392 | 0.387 | 0.356 | 0.35 | 0.351 | 0.645 | 0.922 | 0.837 | 0.7 | 0.727 | 0.769
LK-2 | 0.433 | 0.588 | 0.393 | 0.402 | 0.269 | 0.295 | 0.304 | 1.01 | 1.04 | 0.796 | 0.611 | 0.392 | 0.296 | 0.386 | 0.188 | 0.237 | 0.236 | 0.345
LCLC-97TM1 | 0.402 | 0.467 | 0.2 | 0.409 | 0.34 | 0.62 | 0.343 | 0.929 | 1.28 | 0.655 | 0.611 | 1.21 | 0.763 | 0.659 | 0.514 | 0.628 | 0.159 | 0.98
PC-3 [JPC-3] | 0.465 | 0.441 | 0.47 | 0.381 | 0.714 | 0.532 | 0.43 | 0.504 | 0.466 | 0.511 | 0.461 | 0.437 | 0.737 | 0.937 | 0.732 | 0.319 | 0.664 | 1.21
NCI-H1975 | 0.416 | 0.457 | 0.393 | 0.452 | 0.699 | 0.872 | 0.885 | 1.02 | 0.946 | 1.1 | 0.846 | 0.987 | 0.76 | 0.711 | 0.701 | 0.719 | 0.687 | 0.854
NCI-H647 | 0.47 | 0.504 | 0.456 | 0.459 | 0.353 | 0.515 | 0.585 | 1.41 | 1.16 | 1.27 | 0.891 | 0.275 | 0.705 | 0.494 | 0.304 | 0.153 | 0.635 | 0.886
NCI-H838 | 0.551 | 0.703 |  | 0.594 | 0.716 | 0.775 | 0.956 | 0.998 | 1.03 | 1.17 | 0.945 | 1.25 | 0.727 | 0.72 | 0.748 | 0.739 | 0.855 | 0.751
LCLC-103H | 0.328 | 0.316 | 0.272 | 0.269 | 0.736 | 0.797 | 0.636 |  |  |  |  |  | 0.814 | 0.881 | 0.732 | 0.762 | 0.429 | 0.943
NCI-H2087 | 0.423 | 0.49 | 0.443 | 0.464 | 0.424 | 0.788 | 0.594 | 1.07 | 0.992 | 0.902 | 1.09 | 0.983 | 0.651 | 0.804 | 0.741 | 0.822 | 0.712 | 0.702
NCI-H1648 |  |  |  |  | 0.415 | 0.441 | 0.476 |  |  |  |  |  | 0.436 | 0.624 | 0.457 | 0.375 |  | 
NCI-H1623 | 0.565 | 0.61 | 0.565 | 0.46 |  |  |  |  |  |  |  |  |  |  |  |  |  | 
A549 | 0.172 | 0.127 | 0.152 | 0.278 |  |  |  | 0.989 | 1.03 | 1.01 | 1.03 | 0.912 |  |  |  |  |  | 
Calu-6 |  |  |  |  |  |  |  | 1.17 | 1.07 | 1.11 | 1.13 | 1.16 |  |  |  |  |  | 
NCI-H522 | 0.635 | 0.643 | 0.649 | 0.65 | 0.764 | 0.827 | 0.957 |  |  |  |  |  | 1.02 | 1.02 | 0.973 | 0.92 | 0.828 | 0.762
NCI-H1563 | 0.641 | 0.665 | 0.574 | 0.627 |  |  |  | 0.889 | 0.89 | 0.993 | 0.859 | 1 |  |  |  |  |  | 
IA-LM |  |  |  |  | 0.772 | 0.907 | 1 | 0.913 | 0.976 | 0.935 | 0.758 | 0.716 | 1.05 | 0.895 | 0.952 | 1.03 |  | 0.842
NCI-H2342 | 0.551 | 0.556 | 0.528 | 0.634 | 0.789 | 0.778 | 0.785 |  |  |  |  |  | 0.833 | 0.9 | 0.742 | 0.811 | 0.751 | 0.673
